According to PubChem BioAssay AID2060508 (Molecular Pharmacology Branch, DTP, NCI, 2025):
“And” between values parts separate entries of the source, which are not always exact repeats. Identical values can stand only once.

System: 454973-116-R2-J3-PDC spheroids, viability, % test/control
Test: Anticancer human tumor 454973-116-R2-J3-PDC patient-derived pancreatic carcinoma cell line growth inhibition [GQUAD]
Settings: spheroids with HUVEC and MSC; for viability, T/C: stronger effect = lower value
Description: DNA G-quadruplex Stabilizer Agents in Combinations in Complex Spheroids
A high-throughput screen of multi-cell type tumor spheroids was designed to identify active combinations of DNA G-quadruplex stabilizer agents and targeted small molecules. Complex spheroids include a stromal component modeled by human endothelial cells (HUVEC) and fibroblasts modeled by human mesenchymal stem cells (MSCs). The concentration ranges selected for each drug and investigational agent were based upon clinically achievable concentrations if the clinical Cmax of the agent was known.
Compounds. The drugs and investigational agents: pidnarulex (CX-5461; NSC782164), APTO-253 (NSC789042), BRACO-19 (NSC847499), peposertib (NSC802822), ceralasertib (NSC780249), elimusertib (NSC800525), camonsertib (NSC841442), AZD-1390 (NSC803789), olaparib (NSC753686), talazoparib (NSC767125), ART-558 (NSC835418), sotorasib (NSC818433), MRTX-1133 (NSC836407), SN-38 (NSC673596), topotecan (NSC609699), etoposide (NSC141540), doxorubicin (NSC123127), gemcitabine (NSC613327), 5-fluorouracil (NSC19893), paclitaxel (NSC125973), vemurafenib (NSC761431), panobinostat (NSC761190), R-306465 (JNJ-16241199; NSC773264), adavosertib (NSC754352), TP-3654 (NSC805149), carboplatin (NSC241240), KSQ-4279 (NSC840948), and staurosporine (NSC755774) were obtained from the National Cancer Institute (NCI) Developmental Therapeutics Program Chemical Repository (34). The FDA-approved anticancer drug set is available from the NCI Developmental Therapeutics Program. […] The stock solutions were prepared in dimethyl sulfoxide (DMSO, Sigma-Aldrich, St. Louis, MO, cat. D2650) at 800-fold the tested concentration and stored at -70 degrees C prior to their use. All drugs and investigational agents were tested over a range starting from a high concentration at or near the clinical Cmax and decreasing in half-log increments. If the clinical Cmax for an agent had not been determined, the highest concentration tested was 10 microM.
2.3 Cell Culture. All cells were maintained in an incubator at 37 degrees C and 5% CO2 with 95% humidity. The PDC lines were cultured according to standard operating procedures established by the NCI PDMR. All PDCs were thawed and cultured in Matrigel-coated flasks prepared with a working solution of 1X Ham's F-12 nutrient mix, without supplementation (Invitrogen, cat. 11765054), 100 U/mL penicillin-streptomycin (Invitrogen, cat. 15140122), and 2.5% Matrigel (Corning Inc., cat. 354248) for the first three passages. The 857933-349-R-J2-PDC line was cultured in 6C/Colon 1B media, which includes advanced DMEM/F-12 (Thermo Fisher Scientific, cat. 12634028), 10 mM HEPES (Thermo Fisher Scientific, cat. 15630080), 1X GlutaMAX supplement (Thermo Fisher Scientific, cat. 35050061), 0.1 mg/mL primocin (InvivoGen, cat. ant-pm-2), 10% defined fetal bovine serum, heat inactivated (HyClone Laboratories Inc., cat. SH30070.03HI), 50% L-WRN conditioned media (ATCC, cat. CRL-3276), 1.25 mM N-Acetyl-L-cysteine (Sigma-Aldrich, cat. A9165), 10 mM nicotinamide (Sigma-Aldrich, cat. N0636), 1X B-27 supplement (Thermo Fisher Scientific, cat. 17504044), 1X N-2 supplement (Thermo Fisher Scientific, cat. 17502048), 10 microM Y-27632 dihydrochloride (Tocris Bioscience, cat. 1254), and 50 ng/mL human EGF recombinant protein (Thermo Fisher Scientific, cat. PHG0311). The 485176-168-R4-J1-PDC line was cultured in Panc media, which includes all 6C/Colon 1B media components plus 100 ng/mL human FGF-10 (Thermo Fisher Scientific, cat. 100-26), 500 nM SB-431542 (Selleckchem, cat. S1067), and gastrin (Tocris, cat. 3006).
[…]
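Note: spheroids exposed to compounds for seven days.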

Q: Which results are given for `CC(C)(O)C1CCC(Nc2ccc3ncc(-c4cccc(C(F)(F)F)c4)n3n2)CC1` (stereo not drawn) + CN(C)c1ccc(Nc2c3ccc(NC(=O)CCN4CCCC4)cc3nc3cc(NC(=O)CCN4CCCC4)ccc23)cc1?
A: IC50 (curve of first compound, second compound 0.0316 µM): 1.78 µM; IC50 (curve of first compound, second compound 0.1 µM): 1.73 µM; IC50 (curve of first compound, second compound 0.316 µM): 1.54 µM; IC50 (curve of first compound, second compound 1 µM): 1.25 µM; IC50 (curve of first compound, second compound 3.16 µM): 0.739 µM; IC50 (curve of first compound, second compound 10 µM): 0.808 µM; viability, T/C (second compound 0.0316 µM, first compound 0.0316 µM): 108%; viability, T/C (second compound 0.0316 µM, first compound 0.1 µM): 101%; viability, T/C (second compound 0.0316 µM, first compound 0.316 µM): 94.8%; viability, T/C (second compound 0.0316 µM, first compound 1 µM): 77%; viability, T/C (second compound 0.0316 µM, first compound 3.16 µM): 17.3%; viability, T/C (second compound 0.0316 µM, first compound 10 µM): 29.5%; viability, T/C (second compound 0.1 µM, first compound 0.0316 µM): 93.8%; viability, T/C (second compound 0.1 µM, first compound 0.1 µM): 90.3%; viability, T/C (second compound 0.1 µM, first compound 0.316 µM): 102%; viability, T/C (second compound 0.1 µM, first compound 1 µM): 72.6%; viability, T/C (second compound 0.1 µM, first compound 3.16 µM): 15.6%; viability, T/C (second compound 0.1 µM, first compound 10 µM): 34.5%; viability, T/C (second compound 0.316 µM, first compound 0.0316 µM): 95.3%; viability, T/C (second compound 0.316 µM, first compound 0.1 µM): 90.3%; viability, T/C (second compound 0.316 µM, first compound 0.316 µM): 83.9%; viability, T/C (second compound 0.316 µM, first compound 1 µM): 62.9%; viability, T/C (second compound 0.316 µM, first compound 3.16 µM): 23.3%; viability, T/C (second compound 0.316 µM, first compound 10 µM): 33.2%; viability, T/C (second compound 1 µM, first compound 0.0316 µM): 87.9%; viability, T/C (second compound 1 µM, first compound 0.1 µM): 92%; viability, T/C (second compound 1 µM, first compound 0.316 µM): 84.5%; viability, T/C (second compound 1 µM, first compound 1 µM): 55.8%; viability, T/C (second compound 1 µM, first compound 3.16 µM): 22.6%; viability, T/C (second compound 1 µM, first compound 10 µM): 30.5%; viability, T/C (second compound 3.16 µM, first compound 0.0316 µM): 85.8%; viability, T/C (second compound 3.16 µM, first compound 0.1 µM): 82.7%; viability, T/C (second compound 3.16 µM, first compound 0.316 µM): 80.2%; viability, T/C (second compound 3.16 µM, first compound 1 µM): 39.4%; viability, T/C (second compound 3.16 µM, first compound 3.16 µM): 22.6%; viability, T/C (second compound 3.16 µM, first compound 10 µM): 31.6%; viability, T/C (second compound 10 µM, first compound 0.0316 µM): 62.3%; viability, T/C (second compound 10 µM, first compound 0.1 µM): 64.8%; viability, T/C (second compound 10 µM, first compound 0.316 µM): 55%; viability, T/C (second compound 10 µM, first compound 1 µM): 48.1%; viability, T/C (second compound 10 µM, first compound 3.16 µM): 12.1%; viability, T/C (second compound 10 µM, first compound 10 µM): 10.4%

Q: How did the viability, T/C (compound 0.0316 µM) turn out when `CC(C)n1c(=O)n(C)c2cnc3cc(F)c(-c4ccc(OCCCN5CCCCC5)nc4)cc3c21` was run?
A: 104% and 111% and 96.6%

Q: And the viability, T/C (compound 0.1 µM)?
A: 103% and 98.6% and 97.8%

Q: What about the viability, T/C (compound 0.316 µM) of the same compound?
A: 97.7% and 102% and 92.9%

Q: And the viability, T/C (compound 1 µM)?
A: 101% and 92.8% and 92.4%

Q: What about the viability, T/C (compound 3.16 µM) of the same compound?
A: 91.9% and 89.9% and 91.4%

Q: What about the viability, T/C (compound 10 µM) of the same compound?
A: 64% and 74.3% and 68.2%

Q: And the IC50 (curve of compound)?
A: > 10 µM

Q: With `CC1COCCN1c1cc(C2(S(C)(=N)=O)CC2)nc(-c2ccnc3[nH]ccc23)n1` (stereo not drawn) as the compound, how does the viability, T/C (compound 0.0316 µM) read?
A: 104% and 101% (2×)

Q: What about the viability, T/C (compound 0.1 µM) of the same compound?
A: 108% (2×) and 109%

Q: What about the viability, T/C (compound 0.316 µM) of the same compound?
A: 106% (2×) and 113%

Q: What about the viability, T/C (compound 1 µM) of the same compound?
A: 100% and 96.2% and 104%

Q: And the viability, T/C (compound 3.16 µM)?
A: 67.5% and 72.8% and 72.2%

Q: And the viability, T/C (compound 10 µM)?
A: 30% and 37.2% and 31.8%

Q: And the IC50 (curve of compound)?
A: 5.41 µM and 6.58 µM and 5.95 µM

Q: Which results are given for `C=CC(=O)N1CCN(c2nc(=O)n(-c3c(C)ccnc3C(C)C)c3nc(-c4c(O)cccc4F)c(F)cc23)C(C)C1` (stereo not drawn)?
A: viability, T/C (compound 0.0316 µM): 105% and 109% and 98.9%; viability, T/C (compound 0.1 µM): 108% and 100% and 98.3%; viability, T/C (compound 0.316 µM): 108% and 105% and 116%; viability, T/C (compound 1 µM): 111% and 116% and 110%; viability, T/C (compound 3.16 µM): 111% and 110% and 115%; viability, T/C (compound 10 µM): 115% and 108% and 109%; IC50 (curve of compound): > 10 µM
